Assay results reported in patent US20170137473A1, “FLUOROGEN ACTIVATING AND SHIFTING TAG (FAST)” (PARIS SCIENCES ET LETTRE - QUARTIER LATIN, priority 2014, published 2017).

Legend:
zebrafish embryos = assay: Fitness of zebrafish embryos incubated with HMBR during development; format: in vivo; conditions: incubation from 50% epiboly to 24 hpf; data not shown
wild-type PYP = molecular target: T1, wild-type PYP (Halorhodospira halophila, UniProt P16113, C69G); assay: Fluorogen labeling of cells expressing wild-type PYP; format: cell-based
T1 construct: fusion partner differs by host: Aga2p (yeast surface display, pAG14); His-tag-ENLYFQG (E. coli, pET28a); expressed in transfected cells
T1 sequence (P16113 whole entry C69G, the tested form may be a part): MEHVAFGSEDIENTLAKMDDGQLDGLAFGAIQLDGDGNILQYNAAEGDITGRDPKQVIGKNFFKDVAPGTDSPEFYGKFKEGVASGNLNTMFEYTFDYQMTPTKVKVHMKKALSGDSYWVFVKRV
Method: (§1) Flow cytometry analysis was performed on an Accuri C6 (BD Biosciences). Confocal micrographs were acquired on a Zeiss LSM 710 Laser Scanning Microscope equipped with a Plan Apochromat 63×/1.4 NA oil immersion objective. ZEN software was used to collect the data. Images were analyzed with Image J. Spinning-disk confocal micrographs were acquired on a Nikon Eclipse Ti microscope equipped with a 4×/0.15 N.A objective and a coolSnap HQ2/CDDcamera (Princeton Instrument). Metamorph premier 7.6 software (Molecular Devices) was used to collect the data.
(§2) Labeling of Y-FAST with HBR and HMBR in cells was then analyzed by flow cytometry in three different expression systems: yeast, E. coli and mammalian cells (HeLa cells). The fluorescence was compared to wild-type cells or cells expressing wild-type PYP. […] The performance and selectivity of Y-FAST labeling in mammalian cells, yeast and bacteria was furthermore confirmed by confocal microscopy (FIG. 14d and FIGS. 15 c to f and FIG. 16).

Y-FAST [1] = molecular target: T2, Y-FAST (Halorhodospira halophila, UniProt P16113, C69G/D97P/F96I/M100R/Q99S/T101G/T95M/Y94W/Y98T); assay: Labeling of Y-FAST in living cells (yeast, E. coli, HeLa) by flow cytometry; format: cell-based
T2 construct: expressed in transfected cells; host or cells: HeLa cells, transiently transfected (pAG96, pIRES vector)
T2 sequence (P16113 whole entry C69G/Y94W/T95M/F96I/D97P/Y98T/Q99S/M100R/T101G): as the sequence (P16113 whole entry C69G, the tested form may be a part) above, with Y94W, T95M, F96I, D97P, Y98T, Q99S, M100R, T101G counted along it
Method: as §1, §2

Y-FAST [2] = molecular target: T2, Y-FAST; format: cell-based
Method: FIG. 21 is a set of graphs and images showing that Y-FAST fluorescence can be switched on and off by addition and withdrawal of the fluorogenic ligand. (a,b) HeLa cells expressing mCherry-Y-FAST were grown in a microfluidic channel and repeatedly incubated with HMBR-containing culture medium for 20 s and HMBR-free culture medium for 40 s. A multifunctional fluidic controller enabled several cycles of labeling/unlabeling. […] (a) Confocal timelapse showing two cycles of labeling/unlabeling (Ex/Em 488/493-575 nm). (b) Temporal evolution of the cell fluorescence upon addition (+) and removal (−) of HMBR. (c) Confocal micrographs of live HeLa cells expressing Dronpa-NLS (nucleus) and lyn11-Y-FAST (membrane) showing sequential imaging of nuclear Dronpa and membrane-anchored Y-FAST thanks to sequential on/off labeling of Y-FAST intercalated with on/off photoswitching of Dronpa (Ex/Em 488/493-797 nm). […] Scale bars 10 μm.
FIG. 22 is a set of graphs and images showing that Y-FAST enables the control of the density of fluorescent labeling independently of the expression level. […] Data represents mean±SD (n=15).
A rapid prototyping technique has been used for the device fabrication. A digital cutting machine (Graphtec, CE6000) was used to produce a 0.5 mm wide microfluidic channel in a 0.5 mm thick silicone layer, which was supported by a 50 μm thick plastic film. After removing the plastic film and oxygen plasma treatment, the silicone layer was bonded to a 5 mm thick layer of polydimethylsiloxane (PDMS) which was prepared by casting a mixture of A and B components of RTV 615 (GE, France) at a 10:1 w/w ratio on a flat silicon wafer and curing it at 80° C. for 2 h. Then, inlet and outlet holes were punched with a metal tube for connections. Afterward, the silicone-PDMS complex was bonded to a 160 μm thick cover slide after oxygen plasma treatment. Finally, the whole device was put in a 80° C. oven for 10 min. Before cell seeding, the device was sterilized under UV exposure for more than 30 min. […]

HeLa cells = assay: LIVE/DEAD viability assay (calceinAM, EthD1) of HeLa cells; format: cell-based; conditions: incubated 5 h at 5, 10 and 20 μM; concentrations used for imaging
Method: Cell viability was tested by using calceinAM and EthD1 (LIVE/DEAD® viability/cytotoxicity assay kit). CalceinAM is a cell-permeant profluorophore cleaved by intracellular esterases releasing the green fluorescent polyanionic calcein in live cells. EthD1 (Ethidium homodimer 1) is a non cell-permeant nucleic acid red fluorescent stain that enters only cells with damaged membranes and undergoes a fluorescence enhancement upon binding to nucleic acids, thereby producing a bright red fluorescence in dead cells. Control experiments with HeLa cells non-incubated with dye (top left, live control) or incubated for 1 h with 1% hydrogen peroxyde (top right, dead control) are shown. Cell fluorescence was evaluated by confocal microscopy.

[3] = test system: wild-type bacteria, yeast and mammalian cells; assay: Fluorescence background of fluorogen in wild-type cells (flow cytometry, confocal); format: cell-based
Method: as §1, §2

Cc1cc(/C=C2\SC(=S)NC2=O)ccc1O [HMBR, (Z)-5-(4-hydroxy-3-methylbenzylidene)-2-thioxo-1,3-thiazolidin-4-one]
toxicity for zebrafish embryos (mortality, development) (zebrafish embryos): did not induce any mortality or perturbation in the development | binding to wild-type PYP (wild-type PYP): do not bind | fluorescent labeling of Y-FAST in living cells, comparison (Y-FAST [1]): outperforms HBR | time of labeling in cells (Y-FAST [2]; 5 μM HMBR, microfluidic channel): within about ten seconds | concentration sufficient for full labeling in cells (Y-FAST [2]; HeLa cells expressing mCherry-Y-FAST): 1 µM | cell permeability (Y-FAST [2]; inferred from labeling time in HeLa cells): good cell permeability | toxicity for HeLa cells (HeLa cells): non-toxic | fluorescence background in wild-type cells [3]: no or negligible fluorescence background
